{"source": "patent US20070025991A1", "about": "“Use of antagonists of ghrelin or ghrelin receptor to treat intestinal inflammation” (priority 2003, published 2007)", "key": {"[1]": {"tested_on": "ghrelin-induced MAP kinase phosphorylation in IEC-GHS-R cells (rat GHS-R)", "test": "MAP kinase phosphorylation in IEC-GHS-R cells (western blot, phospho-MAPK antibody)", "type": "cell-based", "procedure": "To examine whether an anti-ghrelin IgG or a GHS-R antagonist [D-lys-3]-GHRP-6 blocks ghrelin-mediated responses in experimental colitis, experiments were first performed to test the efficiency of these reagents using in vitro assays. Since ghrelin was previously shown to activate MAP kinase in human HepG2 cells, the effect of the anti-ghrelin antibody or [D-lys-3]-GHRP-6 on ghrelin-induced MAP kinase activation was determined. For these experiments, rat full-length GHS-R cDNA was cloned from rat brain RNA and then subcloned into the retroviral expression vector pMMP. The retroviruses expressing rat GHS-R were used to infect normal rat intestinal epithelial cell line IEC-6 cells (from ATCC). The resulting cell line was named IEC-GHS-R cells.\nThe response of the IEC-GHS-R to rat ghrelin was determined using this MAP kinase assay. Briefly, serum starved IEC-GHS-R cells were treated with ghrelin (10^−7 M) for various times. […]\nTo determine the effect of an anti-ghrelin IgG or a GHS-R antagonist [D-lys-3]-GHRP on ghrelin-induced MAPK phosphorylation, IEC-GHS-R cells were pretreated with the anti-ghrelin IgG (2 and 5 μg/ml) or with normal rabbit IgG or [D-lys-3]-GHRP-6 (1-20 nM) for 10 minutes and then treated with rat ghrelin for 5 minutes. MAP kinase phosphorylation was then determined."}, "GHS-R": {"biological_target": "T1, GHS-R (Rattus norvegicus, UniProt O08725)", "T1 construct": "host or cells: CHO cells stably expressing rat GHS-R (inferred, same citation)", "T1 sequence (O08725 whole entry)": "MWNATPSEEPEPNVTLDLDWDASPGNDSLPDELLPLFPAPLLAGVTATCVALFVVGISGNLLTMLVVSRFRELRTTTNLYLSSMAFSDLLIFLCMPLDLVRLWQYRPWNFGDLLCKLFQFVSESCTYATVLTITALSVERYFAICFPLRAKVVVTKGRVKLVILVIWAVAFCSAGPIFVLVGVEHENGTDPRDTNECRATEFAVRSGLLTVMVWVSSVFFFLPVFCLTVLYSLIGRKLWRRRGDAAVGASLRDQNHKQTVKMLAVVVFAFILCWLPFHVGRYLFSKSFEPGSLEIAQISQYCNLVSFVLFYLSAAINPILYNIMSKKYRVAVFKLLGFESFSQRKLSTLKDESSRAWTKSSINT", "details": "cited from earlier work"}, "food intake": {"tested_on": "food intake", "details": "food intake induced by centrally injected ghrelin / GHS-R-induced; cited from earlier work"}, "[2]": {"tested_on": "toxin A-induced intestinal fluid secretion", "set-up": "species or system mice", "details": "mouse, in vivo, ip"}, "[3]": {"biological_target": "human GHS-R with HA epitope (pMMP-HA-GHSR), transiently expressed in NCM460 cells (human) (UniProt Q92847)", "sequence (Q92847 whole entry)": "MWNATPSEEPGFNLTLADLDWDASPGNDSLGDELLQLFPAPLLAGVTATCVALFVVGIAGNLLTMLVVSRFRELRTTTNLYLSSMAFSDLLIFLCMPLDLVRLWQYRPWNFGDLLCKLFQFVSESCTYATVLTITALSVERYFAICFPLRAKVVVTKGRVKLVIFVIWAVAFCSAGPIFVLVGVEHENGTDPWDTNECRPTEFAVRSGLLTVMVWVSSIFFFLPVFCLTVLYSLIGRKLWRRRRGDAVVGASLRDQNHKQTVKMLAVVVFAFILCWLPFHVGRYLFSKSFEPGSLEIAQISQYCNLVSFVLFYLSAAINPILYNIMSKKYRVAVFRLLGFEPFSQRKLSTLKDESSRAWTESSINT", "test": "cell-based or functional assay"}, "[4]": {"tested_on": "IL-8 promoter activity in NCM460 cells expressing human GHS-R", "test": "IL-8 promoter-luciferase assay in GHS-R-expressing NCM460 cells", "type": "cell-based", "procedure": "Construction of a reporter construct containing 1521 bp (nucleotides −1481 to +40) of the promoter region of human IL-8 gene has been described previously (Warny, M. et al., J. Clin. Invest., 105:1147-1156 (2000)). IL-8 reporter constructs containing mutations in NF-κB, AP-1 or C/EBP sites have been described previously (Zhao, D. et al., J. Biol. Chem., 276:44464-44471 (2001)). […] Firefly and Renilla luciferase activities in cell extracts were measured using Dual-Luciferase Reporter Assay System (Promega). The relative luciferase activity were then calculated by normalizing IL-8 promoter-driven Firefly luciferase activity to control Renilla luciferase activity. […]\nNCM460 cells were transiently transfected with pMMP-HA-GHSR or a control plasmid pMMP-LacZ along with IL-8 promoter-luciferase construct plus an internal control construct. The transfected cells were stimulated with ghrelin for 6 hours and the IL-8 promoter activity was measured.\nTo examine whether ghrelin-induced IL-8 gene expression involves the NF-κB pathway, NCM-GHS-R cells were transiently transfected with IL-8-luciferase construct along with an internal control plasmid. […] IL-8 promoter activity was measured. […]"}, "[5]": {"tested_on": "IL-8 secretion in NCM-GHS-R cells", "test": "IL-8 secretion (ELISA) in NCM-GHS-R cells", "type": "cell-based, human", "details": "serum starved NCM-GHS-R cells, ghrelin 10^−7 M, various times"}, "[6]": {"tested_on": "NCM460, HT29 and Caco-2 cells", "test": "IL-8 gene expression in colonic epithelial cell lines with endogenous ghrelin receptor", "type": "cell-based, human", "details": "NCM460, HT29, Caco-2 with very low endogenous ghrelin receptor"}}, "note": "Non-standard residues stand in square brackets, D forms with d. No end group written: not given here."}
{"molecule": "His-D-Trp-D-Lys-Trp-D-Phe-Lys-NH2 (H[dW][dK]W[dF]K-NH2; N-terminus assumed; SMILES NCCCC[C@H](NC(=O)[C@@H](Cc1ccccc1)NC(=O)[C@H](Cc1c[nH]c2ccccc12)NC(=O)[C@@H](CCCCN)NC(=O)[C@@H](Cc1c[nH]c2ccccc12)NC(=O)[C@@H](N)Cc1c[nH]cn1)C(N)=O) [[D-lys-3]-GHRP-6, commercially available hexapeptide ghrelin receptor (GHS-R) antagonist]", "values": [{"measurement": "inhibition of ghrelin-induced MAPK phosphorylation", "setting": "[1]; pretreated 10 minutes (anti-ghrelin IgG 2 and 5 μg/ml; [D-lys-3]-GHRP-6 1-20 nM), then rat ghrelin 5 minutes", "result": "inhibited ghrelin-induced MAPK phosphorylation in a dose-dependent manner"}, {"measurement": "block of GHS-R-induced calcium response", "setting": "GHS-R", "result": "efficiently block"}, {"measurement": "block of food intake", "setting": "food intake", "result": "efficiently block"}, {"measurement": "basal fluid secretion in buffer-exposed loops", "setting": "[2]", "result": "no significant effect"}, {"measurement": "inhibition of toxin A-induced fluid secretion", "setting": "[2]", "result": "approximately 50%"}]}
{"molecule": "ghrelin (species not stated, used on human NCM460-derived cells) (peptide)", "values": [{"measurement": "IL-8 promoter activity (luciferase reporter)", "setting": "[3]", "result": 8, "unit": "fold"}]}
{"molecule": "O=C(/C=C/c1ccc(O)c(O)c1)OCCc1ccccc1", "note": "[CAPE]", "values": [{"measurement": "inhibition of ghrelin-induced IL-8 promoter activity", "setting": "[4]; NCM-GHS-R cells, 10 μg/ml CAPE 30 minutes pretreatment, ghrelin 10^−7 M 4 hours", "result": "inhibited ghrelin-induced IL-8 promoter activity"}]}
{"molecule": "ghrelin", "values": [{"measurement": "MAP kinase phosphorylation", "setting": "[1]; serum starved IEC-GHS-R cells, ghrelin 10^−7 M, various times", "result": "induces MAP kinase phosphorylation in a time-dependent manner"}, {"measurement": "stimulation of IL-8 promoter activity", "setting": "[4]; NCM460 cells transiently transfected with pMMP-HA-GHSR, ghrelin for 6 hours", "result": "approximately 8 fold"}, {"measurement": "IL-8 secretion in conditioned media", "setting": "[5]", "result": "significantly stimulates IL-8 secretion"}, {"measurement": "IL-8 gene expression on stimulation", "setting": "[6]", "result": "does not mediate IL-8 gene expression"}]}
